According to patent US20250289785A1, “INDOLE DERIVATIVE, METHOD FOR PREPARING SAME, AND USE THEREOF” (MITOIMMUNE THERAPEUTICS INC., priority 2021, published 2025):

Key:
NRK-49F cells = assay: Cell death protective effect in renal fibroblasts against Erastin, glutamate and RSL3 (LDH); assay type: cell-based, rat; conditions: 24 h
Procedure: (§1) In order to identify the protective effect on renal fibroblasts, NRK-49F cells were divided into 96-well plates by 1×10^4 and cultured for 18 to 24 hours. The compounds of Examples were diluted to final concentrations of 0.1 and 1. μM, treated in each well, and incubated for 15 to 20 minutes. Erastin, glutamate, and RSL3 were treated to have final concentrations of 3 μM, 75 mM, and 3 μM, respectively, and cultured for 24 hours. In order to identify the protective effect of each compound, the degree of LDH extracellular secretion was measured using cytotoxicity LDH assay kit [Dojindo; CK12]. Briefly, at the time when the treatment of the cells with Erastin, glutamate, and RSL3 for 24 hours is completed, the supernatants containing the cells are taken by 70 μL and transferred to a new 96-well plate. The assay buffer included in the kit is added in an amount of 70 μL/well (the same amount as the sample) thereto, and then the plate is wrapped with a foil and the reaction is performed at room temperature for 15 minutes.

ARPE-19 cells = assay: Cell death protective effect in retinal epithelial cells against Erastin and RSL3 (LDH); assay type: cell-based, human; conditions: 24 h
Procedure: In order to identify the protective effect on retinal epithelial cells, ARPE-19 cells were divided into 96-well plates by 1×10^4 and cultured for 18 to 24 hours. The compounds of Examples were diluted to final concentrations of 0.03 and 0.3 μM, treated in each well, and incubated for 20 minutes. Erastin, and RSL3 were treated to have final concentrations of 10 μM, and 0.3 μM, respectively, and cultured for 24 hours. In order to identify the protective effect of each compound, the degree of LDH extracellular secretion was measured using cytotoxicity LDH assay kit [Dojindo; CK12]. Briefly, at the time when the treatment of the cells with Erastin, and RSL3 for 24 hours is completed, the supernatants containing the cells are taken by 70 μL and transferred to a new 96-well plate. The assay buffer included in the kit is added in an amount of 70 μL/well (the same amount as the sample) thereto, and then the plate is wrapped with a foil and the reaction is performed at room temperature for 15 minutes.

NIH/3T3 cells = assay: Cell death protective effect in fibroblasts against Erastin, glutamate and RSL3 (LDH); assay type: cell-based, mouse; conditions: 24 h
Procedure: as §1, with “on” for “on renal”, “NIH/3T3” for “NRK-49F”, “8×10^3” for “1×10^4”, “1” for “1.”, “30” for “75”

H9C2 cells = assay: Cell protection effect against t-BHP in heart cells (LDH release); assay type: cell-based; conditions: H9C2, t-BHP 40 μM, 2 hours
Procedure: In order to identify the protective effect with regard to heart cells, H9C2 cells were divided into 96-well plates by 1.5×10^4, and cultured for 24 hours. The respective wells were treated with compounds of the examples 3× serial diluted to final concentrations of […], then cultured for 15 to 20 minutes. After treating with t-BHP with a final concentration of 40 μM, culturing was performed for 2 hours. In order to identify the protective effect of each compound, a Cytotoxicity LDH assay kit [Dojindo; CK12] was used to measure the degree of extracellular secretion of LDH. To describe briefly, at the time point 2-hour treatment of the cells with t-BHIP was completed, 100 μL each of the supernatant in which the cells were placed was collected and moved to a new 96-well plate. 100 μL/well of the assay buffer included in the kit (same amount as the sample) was added, followed by wrapping with foil and reacting for 30 minutes at room temperature. Observing the change in color of the sample, 50 μL/well of stop solution was added, then an iD3 spectrometer was used to measure absorbance at 490 nm and calculate the EC50 values. The EC50 of the compounds of the examples is preferably no more than 1.0 μM, and more preferably no more than 0.3 μM.

PC-12 cells = assay: Cell death protective effect in adrenal cells against Erastin, glutamate and RSL3 (LDH); assay type: cell-based, rat; conditions: 24 h
Procedure: In order to identify the protective effect on adrenal cells, PC-12 cells were divided into 96-well plates by 1×10^4 and cultured for 18 to 24 hours. […] Erastin, glutamate, and RSL3 were treated to have final concentrations of 1 μM, 10 mM, and 0.3 μM, respectively, and cultured for 24 hours. In order to identify the protective effect of each compound, the degree of LDH extracellular secretion was measured using cytotoxicity LDH assay kit [Dojindo; CK12]. Briefly, at the time when the treatment of the cells with Erastin, glutamate, and RSL3 for 24 hours is completed, the supernatants containing the cells are taken by 70 μL and transferred to a new 96-well plate. The assay buffer included in the kit is added in an amount of 70 μL/well (the same amount as the sample) thereto, and then the plate is wrapped with a foil and the reaction is performed at room temperature for 15 minutes.

[1] = Glutamate, 75 mM, compound 0.1 μM
[2] = Glutamate, 75 mM, compound 1.0 μM
[3] = ARPE-19, Erastin, 10 μM, compound 0.03 μM
[4] = ARPE-19, Erastin, 10 μM, compound 0.3 μM
[5] = ARPE-19, RSL3, 0.3 μM, compound 0.03 μM (first RSL3 column)
[6] = ARPE-19, RSL3, 0.3 μM, compound 0.03 μM (second RSL3 column)
[7] = NIH/3T3, Erastin, 3 μM, compound 0.1 μM
[8] = NIH/3T3, Erastin, 3 μM, compound 1.0 μM
[9] = NIH/3T3, Glutamate, 30 mM, compound 0.1 μM
[10] = NIH/3T3, Glutamate, 30 mM, compound 1.0 μM
[11] = NIH/3T3, RSL3, 3 μM, compound 0.1 μM
[12] = NIH/3T3, RSL3, 3 μM, compound 1.0 μM
[13] = PC-12, Erastin, 1 μM, compound 0.1 μM
[14] = PC-12, Erastin, 1 μM, compound 1.0 μM
[15] = PC-12, Glutamate, 10 mM, compound 0.1 μM
[16] = PC-12, Glutamate, 10 mM, compound 1.0 μM
[17] = PC-12, RSL3, 0.3 μM, compound 0.1 μM
[18] = PC-12, RSL3, 0.3 μM, compound 1.0 μM

SMILES	inhibition (%) (NRK-49F cells; Erastin, 3 μM, compound 0.1 μM)	inhibition (%) (NRK-49F cells; Erastin, 3 μM, compound 1.0 μM)	inhibition (%) (NRK-49F cells; [1])	inhibition (%) (NRK-49F cells; [2])	inhibition (%) (NRK-49F cells; RSL3, 3 μM, compound 0.1 μM)	inhibition (%) (NRK-49F cells; RSL3, 3 μM, compound 1.0 μM)	inhibition (%) (ARPE-19 cells; [3])	inhibition (%) (ARPE-19 cells; [4])	inhibition (%) (ARPE-19 cells; [5])	inhibition (%) (ARPE-19 cells; [6])	inhibition (%) (NIH/3T3 cells; [7])	inhibition (%) (NIH/3T3 cells; [8])	inhibition (%) (NIH/3T3 cells; [9])	inhibition (%) (NIH/3T3 cells; [10])	inhibition (%) (NIH/3T3 cells; [11])	inhibition (%) (NIH/3T3 cells; [12])	inhibition (%) (PC-12 cells; [13])	inhibition (%) (PC-12 cells; [14])	inhibition (%) (PC-12 cells; [15])	inhibition (%) (PC-12 cells; [16])	other results
COCc1cc(NC2CCOCC2)c2[nH]c(-c3ccccc3)cc2c1 [Example 1, 5-(methoxymethyl)-2-phenyl-N-tetrahydropyran-4-yl-1H-indol-7-amine]	96%	95%	100%	100%	98%	98%	100%	100%	100%	100%	99%	99%	98%	97%	98%	99%	100%	100%	77%	100%	EC50 (H9C2 cells): ≤ 300 nM; inhibition (%) (PC-12 cells; [17]): 100%; inhibition (%) (PC-12 cells; [18]): 100%
COCc1cc(NC2CCCC2)c2[nH]c(-c3ccccc3)cc2c1 [Example 2, N-cyclopentyl-5-(methoxymethyl)-2-phenyl-1H-indol-7-amine]	97%	94%	100%	100%	98%	97%	100%	100%	100%	100%	99%	100%	98%	99%	100%	100%	100%	100%	96%	100%	EC50 (H9C2 cells): ≤ 300 nM; inhibition (%) (PC-12 cells; [17]): 100%; inhibition (%) (PC-12 cells; [18]): 100%
COCc1cc(NC2CC[S+]([O-])CC2)c2[nH]c(-c3ccccc3)cc2c1 (centres unmarked) [Example 14, 5-(methoxymethyl)-N-(1-oxothian-4-yl)-2-phenyl-1H-indol-7-amine]	96%	93%	100%	100%	97%	97%	100%	98%	82%	98%	38%	100%	97%	96%	100%	100%	100%	100%	45%	100%	EC50 (H9C2 cells): ≤ 300 nM; inhibition (%) (PC-12 cells; [17]): 100%; inhibition (%) (PC-12 cells; [18]): 100%
CCOCc1cc(NC2CCCC2)c2[nH]c(-c3ccccc3)cc2c1 [Example 19, N-cyclopentyl-5-(ethoxymethyl)-2-phenyl-1H-indol-7-amine]	96%	95%	100%	100%	97%	96%	99%	100%	100%	100%	100%	100%	95%	97%	100%	100%	100%	100%	100%	100%	EC50 (H9C2 cells): ≤ 300 nM; inhibition (%) (PC-12 cells; [17]): 100%; inhibition (%) (PC-12 cells; [18]): 100%
CCOCc1cc(NC2CCOCC2)c2c(c1)c(COC)c(-c1ccccc1)n2C [Example 29, 5-(ethoxymethyl)-3-(methoxymethyl)-1-methyl-2-phenyl-N-(tetrahydro-2H-pyran-4-yl)-1H-indol-7-amine]	3%	93%	17%	100%	0%	96%	22%	100%	18%	100%	0%	99%	98%	97%	100%	100%	0%	100%	22%	71%	EC50 (H9C2 cells): 300 to 1000 nM; inhibition (%) (PC-12 cells; [17]): 26%; inhibition (%) (PC-12 cells; [18]): 100%
CCOC(=O)c1ccc(NC2CCCCC2)c(N)c1 [Ferrostatin-1, reference compound]	98%	97%	90%	100%	97%	97%	96%	100%	68%	100%	0%	96%	98%	98%	100%	100%	100%	100%	29%	99%	inhibition (%) (PC-12 cells; [17]): 100%; inhibition (%) (PC-12 cells; [18]): 100%
